Tested on: HeLa cells
Assay: Cellular delivery studies with and without GO co-incubation, HeLa
Type: cell-based
Protocol: ICP-MS Samples were prepared in 15-mL conical tubes by adding ACS reagent grade nitric acid (70%), followed by incubation at 70° C. overnight to allow for complete sample digestion. The effectiveness of this digestion protocol was previously validated for GO. After incubation, a multi-element internal standard (containing Bi, Ho, In, Li, Sc, Tb, and Y, Inorganic Ventures, Christiansburg, Va.) and milli-Q water (18.2 MΩ·cm) were added to produce a final sample of 3% (v/v) nitric acid and 5 ng/mL internal standard.
ICP-MS was performed on a computer-controlled (Plasmalab software) Thermo X series II ICP-MS (Thermo Fisher Scientific, Waltham, Mass., USA) operating in standard mode equipped with an ESI SC-2 autosampler (Omaha, Nebr., USA). Each sample was acquired using 1 survey run (10 sweeps) and 3 main (peak jumping) runs (100 sweeps). The isotopes selected for analysis were Gd with In and Ho isotopes selected as internal standards for data interpolation. Instrument performance is optimized daily through an autotune followed by verification via a performance report (passing manufacturer specifications). Instrument calibration was accomplished by preparing individual-element Gd standards (Inorganic Ventures, Christiansburg, Va., USA) using concentrations of 0.78125, 1.5625, 3.125, 6.25, 12.50, 25.00, 50.00, 100.0, and 200.0 ng/mL containing 3.0% nitric acid (v/v) and 5.0 ng/mL of multi-element internal standard.
Dulbecco's modified phosphate buffered saline (DPBS), media, and dissociation reagents were purchased from Life Technologies (Carlsbad, Calif.). CorningBrand® cell culture consumables (flasks, plates, etc.) and sera were purchased from VWR Scientific (Radnor, Pa.). HeLa cells (ATCC® CCL-2™) and KB cells (ATCC® CCL-17™) were purchased from the American Type Culture Collection (ATCC, Manassas, Va.) and cultured in phenol red-free minimum essential media (MEM) supplemented with 10% fetal bovine serum (FBS). Prior to all experiments, cells were plated and allowed to incubate for 24 hours before dosing. Cells were harvested with 0.25% TrypLE for 5 minutes at 37° C. in a 5.0% CO2 incubator. For sterilization, all Gd(III)-labeled molecules were filtered with 0.2 μm sterile filters prior to concentration determination and storage at 4° C. GO was used as prepared without further sterilization. […] Cells were grown in a humidified incubator operating at 37° C. and 5.0% CO2.
Cell counting was conducted using a Guava EasyCyte Mini Personal Cell Analyzer (EMD Millipore, Billerica, Mass.). After cell harvesting, an aliquot (50 μL) of the cell suspensions was mixed with Guava ViaCount reagent (150 μL) and allowed to stain at room temperature for at least 5 minutes. The dilution factor of 4 was determined based upon optimum machine performance (20-150 cells/μL). After vortexing for 10 sec, stained cells were counted using a Guava EasyCyte Mini Personal Cell Analyzer (PCA) using the ViaCount software module. For each sample, 1000 events were acquired. Gating of live/dead and cell/debris classifications were performed manually by the operator.
Cellular delivery studies were performed with HeLa and KB cells. HeLa and KB were plated at a cell density of approximately 25,000 and 50,000 cells per well, respectively, in a 24-well plate as counted by a hemocytometer. Stock solutions of 1-14 (1 mM), 150 nm GO (100 μg/mL), and 1500 nm GO (100 μg/mL) were prepared using sterile Milli-Q water. Prior to dosing, 80 μL ([…]) of each GO (150 nm and 1500 nm) and 80 μL (80 nmol) of each Gd(III)-labeled molecule (1-14) were mixed and allowed to adsorb for at least 15 minutes. 150 μL Gd(III)-GO solutions were added to 250 μL media to give a final concentration of 188 μM Gd and 18.8 μg/mL GO. Cells were incubated with the mixture of Gd(III)-labeled molecules and GO for […]. To harvest, cells were rinsed in-plate three times with 500 μL PBS and trypsinized using 100 μL 0.25% TrypLE. […]

Diethylenetriaminepentaacetic acid gadolinium(III) dihydrogen salt hydrate [Molecule 11]
Enhancement by GO (35 mM Magnevist, 20 μg/mL GO, 24-well plates): 3.3 ×
Enhancement by GO (6-well plates): 3.1 ×
Delivery enhancement without adsorption time (150 nm GO, mixture added directly to media): abolished
Delivery enhancement without adsorption time (1500 nm GO, 188 μM Gd(III), 18.8 μg/mL GO): same result
Magnevist uptake (with GO, 35 mM Magnevist, 20 μg/mL GO (150 nm), 17 trials): 515±319 fmol Gd/cell
Typical cellular Gd(III) content (with GO, 35 mM Magnevist, 20 μg/mL GO, 24-well plates, N=11): 299±67 fmol/cell
Loading (cellular Gd(III) content) (with GO, 6-well plates, N=13): 151±56 fmol/cell
Magnevist uptake (without GO, 35 mM Magnevist, 10 trials): 115±32 fmol Gd/cell
Typical cellular Gd(III) content (without GO, 35 mM Magnevist, 24-well plates, N=4): 91±9 fmol/cell
Loading (cellular Gd(III) content) (without GO, 6-well plates, N=4): 49±19 fmol/cell

Reference: US10994016B2, “Graphene oxide mediated cellular delivery of gadolinium-labeled molecules” (Northwestern University, priority 2015, dated 2021)
